# According to ChEMBL document CHEMBL1201862, “PubChem BioAssay data set” (2004):
#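 Step 1: Grow cells in 96-well plates. Step 2: Expose to compound for 48 hours at 5 concentrations. Step 3: Interpolate endpoints linearly; if unreached, use highest concentration. Abbreviation: GI50, concentration required for 50% inhibition of growth.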 Calls of active or inactive are those of the source. Cut-off read from the data, not from the text of the source: active = GI50 up to about 1.1 µM and inactive = higher.
# Key:
# Test in all cases: NCI anticancer screen, dose series, 48 h
# [1] = system: SF-295
# [2] = system: SF-268
# [3] = system: COLO 205
# [4] = system: SNB-75
# [5] = system: M14
# [6] = system: CAKI-1
# [7] = system: NCI-H522
# [8] = system: SNB-19
# [9] = system: IGROV-1
# [10] = system: ACHN
# [11] = system: UACC-62
# [12] = system: EKVX
# [13] = system: SK-MEL-5
# [14] = system: HL-60
SMILES,GI50 [1],GI50 [2],GI50 [3],GI50 [4],GI50 [5],GI50 [6],GI50 [7],GI50 [8],GI50 [9],GI50 [10],GI50 [11],GI50 [12],GI50 [13],GI50 [14]
COc1ccc(/C=C2\CCc3ccccc3C2=O)cc1OC,32.9 µM (inactive),20.8 µM (inactive),19.5 µM (inactive),21.4 µM (inactive),22.4 µM (inactive),31.6 µM (inactive),17.1 µM (inactive),46 µM (inactive),27.4 µM (inactive),24.5 µM (inactive),16 µM (inactive),51.8 µM (inactive),15.9 µM (inactive),
CN(C)CCn1cnc2ncccc2c1=O,> 100 µM (inactive),> 100 µM (inactive),> 100 µM (inactive),> 100 µM (inactive),> 100 µM (inactive),> 100 µM (inactive),> 100 µM (inactive),> 100 µM (inactive),> 100 µM (inactive),> 100 µM (inactive),> 100 µM (inactive),> 100 µM (inactive),> 100 µM (inactive),
Cc1ccc(S(=O)(=O)N/N=C/CN2C(=O)c3ccccc3C2=O)cc1,> 100 µM (inactive),,> 100 µM (inactive),> 100 µM (inactive),> 100 µM (inactive),> 100 µM (inactive),> 100 µM (inactive),> 100 µM (inactive),> 100 µM (inactive),> 100 µM (inactive),89.5 µM (inactive),> 100 µM (inactive),> 100 µM (inactive),> 100 µM (inactive)
Nc1ncn(C2C=C(CO)C(O)C2O)c(=O)n1 (stereo not given),,53 µM (inactive),29.3 µM (inactive),> 100 µM (inactive),> 100 µM (inactive),40.7 µM (inactive),37.2 µM (inactive),> 100 µM (inactive),84.5 µM (inactive),46.5 µM (inactive),> 100 µM (inactive),> 100 µM (inactive),> 100 µM (inactive),31.6 µM (inactive)
CC(C)(C)c1ccc2c(c1)S(=O)(=O)Nc1ccc(Cl)cc1NS(=O)(=O)c1cc(C(C)(C)C)ccc1OCCOCCOCCO2,21.6 µM (inactive),31.1 µM (inactive),> 100 µM (inactive),24 µM (inactive),81.7 µM (inactive),98.2 µM (inactive),,62.2 µM (inactive),38 µM (inactive),42.1 µM (inactive),17.9 µM (inactive),79.6 µM (inactive),28.1 µM (inactive),> 100 µM (inactive)
CC(c1ccc2c(c1)CCC1C2CC2OC23CC=CC(=O)[C@]13C)C1C[C@]2(C)O[C@]2(C)[C@H](O)O1 (stereo not given in full),,63.4 µM (inactive),71.9 µM (inactive),58.9 µM (inactive),10.7 µM (inactive),7.64 µM (inactive),14 µM (inactive),15.9 µM (inactive),90.6 µM (inactive),33.7 µM (inactive),91.2 µM (inactive),5.48 µM (inactive),11 µM (inactive),1.96 µM (inactive)
CC(=O)O[C@H]1C(=O)[C@@]2(C)C(C(OC(=O)c3ccccc3)[C@]3(O)CC(OC(=O)C(O)C(NC(=O)c4ccccc4)c4ccc(C)cc4)C(C)=C1C3(C)C)[C@]1(OC(C)=O)CO[C@@H]1C[C@@H]2O (stereo not given in full),0.0787 µM (active),3.64 µM (inactive),0.0153 µM (active),0.0531 µM (active),0.0161 µM (active),0.104 µM (active),0.0108 µM (active),0.0243 µM (active),0.0215 µM (active),0.466 µM (active),0.043 µM (active),8.95 µM (inactive),,0.0069 µM (active)
S=C1CNC(=S)CN1,> 100 µM (inactive),> 100 µM (inactive),> 100 µM (inactive),> 100 µM (inactive),> 100 µM (inactive),> 100 µM (inactive),> 100 µM (inactive),> 100 µM (inactive),> 100 µM (inactive),> 100 µM (inactive),> 100 µM (inactive),,> 100 µM (inactive),> 100 µM (inactive)
Cc1ccc(N2C(=O)/C(=C/c3ccc(N(CCC#N)CCC#N)cc3C)N=C2c2cc([N+](=O)[O-])ccc2Cl)cc1,> 100 µM (inactive),> 100 µM (inactive),> 100 µM (inactive),> 100 µM (inactive),> 100 µM (inactive),56 µM (inactive),> 100 µM (inactive),> 100 µM (inactive),> 100 µM (inactive),> 100 µM (inactive),> 100 µM (inactive),,> 100 µM (inactive),> 100 µM (inactive)
CC(=O)Nc1ccc(/C=C/C(=O)c2sc(-c3nc(C)c(C(=O)/C=C/c4ccc(NC(C)=O)cc4)s3)nc2C)cc1,> 100 µM (inactive),> 10 µM (inactive),> 100 µM (inactive),,> 100 µM (inactive),> 100 µM (inactive),> 100 µM (inactive),> 100 µM (inactive),> 100 µM (inactive),> 100 µM (inactive),> 100 µM (inactive),> 100 µM (inactive),,> 100 µM (inactive)
CC(C)(C)C1=CC(CCC(=O)Nc2ccccc2[N+](=O)[O-])=NC(S)N1 (stereo not given),> 100 µM (inactive),> 100 µM (inactive),> 100 µM (inactive),,> 100 µM (inactive),> 100 µM (inactive),,> 100 µM (inactive),> 100 µM (inactive),> 100 µM (inactive),> 100 µM (inactive),> 100 µM (inactive),> 100 µM (inactive),> 100 µM (inactive)
CNC(=O)C1CCc2nnc(-c3ccccc3)n21 (stereo not given),,> 100 µM (inactive),> 100 µM (inactive),> 100 µM (inactive),> 100 µM (inactive),> 100 µM (inactive),> 100 µM (inactive),> 100 µM (inactive),> 100 µM (inactive),> 100 µM (inactive),> 100 µM (inactive),55.2 µM (inactive),> 100 µM (inactive),> 100 µM (inactive)
Nc1nc(=O)n([C@@H]2CC[C@H](CO)O2)cc1F,> 100 µM (inactive),> 100 µM (inactive),> 100 µM (inactive),> 100 µM (inactive),> 100 µM (inactive),> 100 µM (inactive),> 100 µM (inactive),> 100 µM (inactive),,> 100 µM (inactive),,> 100 µM (inactive),> 100 µM (inactive),> 100 µM (inactive)
CCc1c(OC(C)=O)c2c(NC3OC(COC(C)=O)C(OC(C)=O)C(OC(C)=O)C3OC(C)=O)nc(SC)nc2oc1=O (stereo not given),> 100 µM (inactive),,> 100 µM (inactive),> 100 µM (inactive),> 100 µM (inactive),> 100 µM (inactive),,> 100 µM (inactive),> 100 µM (inactive),> 100 µM (inactive),> 100 µM (inactive),> 100 µM (inactive),> 100 µM (inactive),> 100 µM (inactive)
O=C(NC1CCCC1=O)c1ccccc1 (stereo not given),> 100 µM (inactive),> 100 µM (inactive),,31.5 µM (inactive),> 100 µM (inactive),> 100 µM (inactive),,> 100 µM (inactive),> 100 µM (inactive),> 100 µM (inactive),> 100 µM (inactive),> 100 µM (inactive),> 100 µM (inactive),> 100 µM (inactive)
